Usually mortality stands for the percentage killed.

One test concerns Bemisia tabaci. Briefly: Bemisia tabaci leaf dip test (brinjal leaves, whitefly adults). Type of test: in vivo. Particulars: foliar, dead and moribund whitefly adults 72 h after release, compared to untreated controls, read-out: percent mortality. The procedure, abridged:
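Brinjal leaves were dipped 10 s in compound diluted in 0.01% Triton-X, dried, and placed on agar, then exposed to freshly emerged whitefly adults at 25° C, 70% RH. Dead plus moribund adults were counted at 72 h, and percent mortality was calculated relative to untreated controls.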

In a further test the test system is Myzus persicae. The experiment in a line: Myzus persicae leaf dip test (capsicum leaves, third instar nymphs). Type of test: in vivo. Conditions: foliar, dead and moribund third instar nymphs 72 h after release, compared to untreated controls, read-out: percent mortality. The method, then: The leaf dip method was used for testing, wherein the required quantity of the compound was weighed and dissolved in a tube containing a solvent solution. The tube was put on a vortex at 2000 rpm for proper mixing and then diluted with a 0.01% Triton-X solution to the desired test concentration. Capsicum leaves were dipped in the compound solution for 10 seconds, shade dried for 20 min and then placed, with the abaxial side of the leaf up, in single cells of a bio-assay tray containing 4 ml of a solidified 1% agar-agar solution. Known numbers of third instar nymphs of Myzus persicae, collected in petri plates, were released into the cell with the treated leaf and the cell was covered with a perforated lid for better aeration. The trays were kept in a plant growth chamber at a temperature of 25° C. and a relative humidity of 70%. Observations on dead, moribund and alive nymphs were recorded 72 h after the release. Percent mortality was calculated by combining dead and moribund nymphs and comparing the result with the one of the untreated controls. The compounds

As to `CS(C)(=O)=Nc1ccc2nn(-c3cncc(F)c3)cc2n1` [Compound 306], the mortality at 300 ppm with Bemisia tabaci and in the test with Myzus persicae was at least 70% each time.

For `CC1(CS(=N)(=O)c2ccc3nn(-c4cncc(F)c4)cc3c2)COC1` (stereo not drawn) [Compound 484, (2-(5-fluoropyridin-3-yl)-2H-indazol-5-yl)(imino)((3-methyloxetan-3-yl)methyl)-λ^6-sulfanone], the mortality at 300 ppm in the test with Myzus persicae is at least 70%. With `N=S(=O)(CC1CCCO1)c1ccc2nn(-c3cccnc3)cc2c1` (stereo not drawn) [Compound 569, imino(2-(pyridin-3-yl)-2H-indazol-5-yl)((tetrahydrofuran-2-yl)methyl)-λ^6-sulfanone], in the test with Myzus persicae, the mortality at 300 ppm was at least 70%. Same read-out and setting: to `CCCS(=O)(=Nc1ccc2nn(-c3cccnc3)cc2c1)C(C)C` (stereo not drawn) [Compound 256] belongs at least 70%. `CS(C)(=O)=Nc1ccc2nn(-c3cccnc3)cc2n1` [Compound 224]: the mortality at 300 ppm with Bemisia tabaci and in the test on Myzus persicae was at least 70% in each case. Consider `CCCS(=O)(=NC(C)=O)c1ccc2nn(-c3cncc(F)c3)cc2c1` (stereo not drawn) [Compound 483], for which, in the test with Myzus persicae, the mortality at 300 ppm is at least 70%. In the case of `CCN=S(=O)(CCCF)c1ccc2nn(-c3cncc(F)c3)cc2c1` (stereo not drawn) [Compound 491], the mortality at 300 ppm with Myzus persicae was at least 70%. Consider `CCS(=N)(=O)c1ccc2nn(-c3cncnc3)cc2c1` (stereo not drawn) [Compound 455, ethyl(imino)(2-(pyrimidin-5-yl)-2H-indazol-5-yl)-λ^6-sulfanone], for which the mortality at 300 ppm with Bemisia tabaci and in the test on Myzus persicae was at least 70% each time. For `CCCS(=N)(=O)c1ccc2nn(-c3cncc(F)c3)cc2c1` (stereo not drawn) [Compound 478, (2-(5-fluoropyridin-3-yl)-2H-indazol-5-yl)(imino)(propyl)-λ^6-sulfanone], the mortality at 300 ppm in the test with Bemisia tabaci and in the test on Myzus persicae was at least 70% in each case. As to `CC(C)CS(=N)(=O)c1ccc2nn(-c3cccnc3)cc2c1` (stereo not drawn) [Compound 557, imino(isobutyl)(2-(pyridin-3-yl)-2H-indazol-5-yl)-λ^6-sulfanone], the mortality at 300 ppm in the test on Bemisia tabaci and in the test with Myzus persicae was at least 70% in each case. `CC(C)S(C)(=O)=Nc1ccc(Cl)c2nn(-c3cccnc3)cc12` (stereo not drawn) [Compound 218]: the mortality at 300 ppm in the test with Bemisia tabaci and in the test on Myzus persicae was at least 70% in each case. As for `CS(=O)(=Nc1ccc2nn(-c3cccnc3)cc2n1)C1CCCCC1` (stereo not drawn) [Compound 216], the mortality at 300 ppm in the test with Bemisia tabaci and with Myzus persicae was at least 70% throughout.

As to `CCCS(=O)(CC)=Nc1cccc2nn(-c3cncc(F)c3)cc12` (stereo not drawn) [Compound 138], the mortality at 300 ppm in the test with Myzus persicae was at least 70%. Regarding `CCS(C)(=O)=Nc1ccc2nn(-c3cncnc3)cc2n1` (stereo not drawn) [Compound 314], the mortality at 300 ppm with Bemisia tabaci and with Myzus persicae was at least 70% each time. As to `CCCS(C)(=O)=Nc1ccc2nn(-c3cncnc3)c(Cl)c2c1` (stereo not drawn) [Compound 180], the mortality at 300 ppm in the test on Myzus persicae was at least 70%. For `CCC(CC)S(=N)(=O)c1ccc2nn(-c3cncc(F)c3)cc2c1` (stereo not drawn) [Compound 480, (2-(5-fluoropyridin-3-yl)-2H-indazol-5-yl)(imino)(pentan-3-yl)-λ^6-sulfanone], the mortality at 300 ppm with Bemisia tabaci and in the test with Myzus persicae was at least 70% each time.

In the case of `CCC(CC)S(=O)(=NC(C)=O)c1ccc2nn(-c3cncc(F)c3)cc2c1` (stereo not drawn) [Compound 485], in the test on Myzus persicae, the mortality at 300 ppm was at least 70%. As to `N=S(=O)(CC(F)(F)F)c1ccc2nn(-c3cncnc3)cc2c1` (stereo not drawn) [Compound 458, imino(2-(pyrimidin-5-yl)-2H-indazol-5-yl)(2,2,2-trifluoroethyl)-λ^6-sulfanone], the mortality at 300 ppm with Bemisia tabaci and in the test on Myzus persicae was at least 70% in each case. On to `CCS(=O)(CC)=Nc1cccc2nn(-c3cncc(F)c3)cc12` [Compound 89], for which the mortality at 300 ppm in the test on Myzus persicae is at least 70%. As to `CCS(C)(=O)=Nc1ccc2nn(-c3cccnc3)cc2n1` (stereo not drawn) [Compound 248], the mortality at 300 ppm in the test on Bemisia tabaci and with Myzus persicae was at least 70% each time.

As for `CC(C)S(=O)(=Nc1ccc2nn(-c3cccnc3)cc2n1)C(C)C` [Compound 255], the mortality at 300 ppm in the test on Bemisia tabaci and in the test with Myzus persicae was at least 70% throughout.

As for `CC(C)S(=O)(CCC(F)(F)F)=Nc1cccc2nn(-c3cccnc3)cc12` (stereo not drawn) [Compound 102], the mortality at 300 ppm with Myzus persicae is at least 70%.

As to `CCN=S(=O)(c1ccc2nn(-c3cccnc3)cc2c1)C(C)C` (stereo not drawn) [Compound 383], the mortality at 300 ppm with Bemisia tabaci and in the test on Myzus persicae was at least 70% throughout. For `CCCS(=O)(CC)=Nc1cccc2nn(-c3cccnc3)cc12` (stereo not drawn) [Compound 136], the mortality at 300 ppm in the test with Myzus persicae was at least 70%. On to `O=S(CCC(F)(F)F)(=Nc1ccc2nn(-c3ccnnc3)cc2c1)c1ccc(F)cc1` (stereo not drawn) [Compound 70], for which the mortality at 300 ppm in the test on Myzus persicae was at least 70%. As for `CCS(=O)(CC)=Nc1ccc2nn(-c3cccnc3)cc2n1` [Compound 249], the mortality at 300 ppm with Bemisia tabaci and in the test on Myzus persicae was at least 70% in each case.

Take `CCC(C)S(=N)(=O)c1ccc2nn(-c3cncc(F)c3)cc2c1` (stereo not drawn) [Compound 479, sec-butyl(2-(5-fluoropyridin-3-yl)-2H-indazol-5-yl)(imino)-λ^6-sulfanone]: the mortality at 300 ppm in the test with Bemisia tabaci and in the test with Myzus persicae was at least 70% in each case. As to `CCCCS(=O)(=NCC)c1ccc2nn(-c3cccnc3)cc2c1` (stereo not drawn) [Compound 390], the mortality at 300 ppm in the test with Myzus persicae was at least 70%.

On to `CC(C)S(C)(=O)=Nc1cccc2nn(-c3cncc(F)c3)cc12` (stereo not drawn) [Compound 90], for which the mortality at 300 ppm in the test with Myzus persicae was at least 70%. For `CCn1c(OC)nn(-c2ccc3nn(-c4cccnc4)cc3c2)c1=O` [Compound 123, 4-ethyl-5-methoxy-2-(2-(pyridin-3-yl)-2H-indazol-5-yl)-2,4-dihydro-3H-1,2,4-triazol-3-one], the mortality at 300 ppm with Bemisia tabaci and with Myzus persicae was at least 70% throughout.

In the case of `CC(=O)N=S(=O)(c1ccc2nn(-c3cccnc3)cc2c1)C1CCCC1` (stereo not drawn) [Compound 581], the mortality at 300 ppm in the test with Myzus persicae was at least 70%.

Consider `COc1nn(-c2ccc3nn(-c4cccnc4)cc3c2)c(=O)n1Cc1ccc(F)cc1` [Compound 124, 4-(4-fluorobenzyl)-5-methoxy-2-(2-(pyridin-3-yl)-2H-indazol-5-yl)-2,4-dihydro-3H-1,2,4-triazol-3-one], for which the mortality at 300 ppm in the test with Bemisia tabaci and with Myzus persicae was at least 70% in each case.

In the case of `CCC(C)S(=O)(=NC(C)=O)c1ccc2nn(-c3cncc(F)c3)cc2c1` (stereo not drawn) [Compound 486], the mortality at 300 ppm with Myzus persicae was at least 70%. Still for that read-out and setting: then `CC(=O)N=S(=O)(CCCF)c1ccc2nn(-c3cncc(F)c3)cc2c1` (stereo not drawn) [Compound 487], with at least 70%. With `CCCS(=O)(=Nc1ccc2nn(-c3cccnc3)cc2n1)C(C)C` (stereo not drawn) [Compound 254], the mortality at 300 ppm with Bemisia tabaci and with Myzus persicae was at least 70% throughout. Turning to `CS(C)(=O)=Nc1ccc(Cl)c2nn(-c3cccnc3)cc12` [Compound 217], the mortality at 300 ppm in the test with Myzus persicae is at least 70%. Consider `CCS(=O)(=Nc1ccc2nn(-c3cncc(F)c3)cc2n1)C(C)C` (stereo not drawn) [Compound 312], for which the mortality at 300 ppm with Bemisia tabaci and in the test with Myzus persicae was at least 70% each time. With `CC(C)S(=O)(CC1CC1)=Nc1ccc2nn(-c3cccnc3)cc2n1` (stereo not drawn) [Compound 288], the mortality at 300 ppm with Bemisia tabaci and with Myzus persicae was at least 70% throughout. `CC(C)S(=O)(CCC(F)(F)F)=Nc1ccc2nn(-c3cccnc3)cc2c1` (stereo not drawn) [Compound 99]: in the test on Myzus persicae, the mortality at 300 ppm was at least 70%. Take `CCS(=O)(=NC(C)=O)c1ccc2nn(-c3cncnc3)cc2c1` (stereo not drawn) [Compound 456]: the mortality at 300 ppm in the test on Myzus persicae is at least 70%. Take `COCCS(C)(=O)=Nc1ccc2nn(-c3cncnc3)cc2n1` (stereo not drawn) [Compound 237]: the mortality at 300 ppm in the test on Bemisia tabaci and in the test with Myzus persicae was at least 70% each time. On to `Cc1cncc(-n2cc3cc(N=S(C)(C)=O)ccc3n2)c1` [Compound 168], for which the mortality at 300 ppm in the test on Myzus persicae is at least 70%. `CC(C)S(C)(=O)=Nc1cnc2nn(-c3cccnc3)cc2c1` (stereo not drawn) [Compound 156]: in the test on Myzus persicae, the mortality at 300 ppm was at least 70%. Still for that read-out and setting: then `N=S(=O)(c1ccc2nn(-c3cccnc3)cc2c1)C1CCCCC1` (stereo not drawn) [Compound 560, cyclohexyl(imino)(2-(pyridin-3-yl)-2H-indazol-5-yl)-λ^6-sulfanone], with at least 70%. For the molecule `N=S(=O)(c1ccc2nn(-c3cncc(F)c3)cc2c1)C1CCC1` (stereo not drawn) [Compound 488, cyclobutyl(2-(5-fluoropyridin-3-yl)-2H-indazol-5-yl)(imino)-λ^6-sulfanone], the mortality at 300 ppm in the test on Myzus persicae was at least 70%. Consider `N#CCCCS(=N)(=O)c1ccc2nn(-c3cccnc3)cc2c1` (stereo not drawn) [Compound 564, 4-(2-(pyridin-3-yl)-2H-indazole-5-sulfonimidoyl)butanenitrile], for which the mortality at 300 ppm in the test with Myzus persicae is at least 70%. For `CCN=S(=O)(c1ccc2nn(-c3cncc(F)c3)cc2c1)C(C)CC` (stereo not drawn) [Compound 490], in the test on Myzus persicae, the mortality at 300 ppm is at least 70%.

With `CCN=S(=O)(c1ccc2nn(-c3cncc(F)c3)cc2c1)C(CC)CC` (stereo not drawn) [Compound 492], in the test on Myzus persicae, the mortality at 300 ppm was at least 70%.

On to `CCN=S(=O)(c1ccc2nn(-c3cccnc3)cc2c1)C1CCC1` (stereo not drawn) [Compound 567], for which the mortality at 300 ppm in the test with Myzus persicae is at least 70%. Consider `N=S(=O)(c1ccc2nn(-c3cccnc3)cc2c1)C1CCCC1` (stereo not drawn) [Compound 558, cyclopentyl(imino)(2-(pyridin-3-yl)-2H-indazol-5-yl)-λ^6-sulfanone], for which the mortality at 300 ppm in the test on Myzus persicae is at least 70%. In the case of `CCS(=N)(=O)c1ccc2nn(-c3cncc(F)c3)cc2c1` (stereo not drawn) [Compound 460, ethyl(2-(5-fluoropyridin-3-yl)-2H-indazol-5-yl)(imino)-λ^6-sulfanone], the mortality at 300 ppm with Myzus persicae was at least 70%.
